Results published in patent US7226746B1, “Method for screening for anti-amyloidogenic properties and method for treatment of neurodegenerative disease” (The Regents of the University of California, priority 1998, dated 2007).
One block for each compound: values may come before it.

Columns and labels:
[1] = target: T1, NACP/α-synuclein (Homo sapiens, UniProt P37840); assay: Inhibition of high temperature aggregation by Congo red (NACP/α-synuclein); assay type: biochemical; parameters: which encodes full length NACP/α-synuclein 140; 6xHis (cleaved yes); made in house; host or cells: E. coli; conditions: 20 μM protein, pH 6.9, 65° C., 20 hours, micromolar concentrations of Congo red
Method: (§1) In order to test the susceptibility of the newly constructed β-synuclein mutants to aggregation, an aggregation assay can be performed. To do this, 10–20 μM of each of the mutant proteins are incubated in a total volume of 20 μl with a final concentration of 100 mM sodium acetate, pH 6.9. Aggregation can be induced under a variety of conditions, for instance, low pH and high temperature. SDS-PAGE analysis/immunoblotting or Thioflavine-S staining provides means for evaluating the reacted samples, the methods of which are described above and well known to those in the art.
(§2) Since previous studies have shown that the aggregation of amyloidogenic proteins were to some extent inhibited by Congo red, increasing concentrations of Congo red were added in the present aggregation system. […] As is shown in FIG. 5, the monomer bands were slightly but surely stabilized by treatment with micromolar concentrations of Congo red, which is consistent with other reported studies.

[2] = target: T2, β-synuclein δ2 (Homo sapiens, UniProt Q16143, A63V/F71V/H65N/INS70[…]/L66V/S64T/S72E); assay: Inhibition of high temperature aggregation by Congo red (β-synuclein δ2); assay type: biochemical; conditions: 20 μM protein, pH 6.9, 65° C., 20 hours, micromolar concentrations of Congo red
T2 construct: 6xHis (cleaved yes); made in house; host or cells: E. coli
Method: as §1, §2

[3] = target: T3, human recombinant NACP/α-synuclein 140 (Homo sapiens, UniProt P37840); assay: Ferric ion-induced aggregation of NACP/α-synuclein 140, immunoblotting analysis; assay type: biochemical; conditions: 4 hour incubation, pH 7.4, 37° C.; 0-1 mM ferric ion, concentration dependent
T3 construct: which encodes full length NACP/α-synuclein 140; 6xHis (cleaved yes); made in house; host or cells: E. coli DH5α
Method: (§3) The cells are harvested and re-suspended in 50 mM Tris-HCl, pH 8.5, containing protease inhibitors. Following sonication and centrifugation of the re-suspension, the supernatant is applied to a Ni-NTA column and eluted with 20 mM Tris-HCl, pH 8.5, containing 100 mM KCl, 100 mM imidazole, […] v/v glycerol and 10 mM β-mercaptoethanol. The eluted fusion protein is dialyzed against 50 mM Tris-HCl, pH 8.5, cleaved with recombinant TEV protease and again applied to a Ni-NTA column. The recombinant NACP/α-synuclein is isolated in the flow through fractions, pooled and stored at −20° C. until use.
(§4) Prior to experimentation, each of the recombinant proteins need to be desalted by way of passage through PD 10 columns (Pharmacia, Piscataway, N.J.) in water and then adjusted to a final concentration of 5 μM. NACP/α-synuclein protein (1 μl) is incubated in a total volume of 20 μl of buffer containing 20 mM Tris-HCl, pH 7.4. To perform the immuno-blotting analysis, each sample is resolved by SDS-PAGE (15%) and blotted onto nitrocellulose membrane (Schleicher & Schuell, Keene, N.H.). The blotted membrane is blocked with Tris-Buffered saline (TBS; 20 mM Tris-HCl, pH 7.5 and 150 mM NaCl) containing 3% BSA, followed by incubation with anti-C-terminal rabbit polyclonal antibody (1:1000) in TBS containing 1% BSA. […]

[4] = target: T1, NACP/α-synuclein; assay: Iron-catalyzed oxidative reaction (metal ion plus hydrogen peroxide) aggregation of NACP/α-synuclein, immunoblotting; assay type: biochemical; parameters: which encodes full length NACP/α-synuclein 140; 6xHis (cleaved yes); made in house; host or cells: E. coli DH5α
Method: Prior to experimentation, each of the recombinant proteins need to be desalted by way of passage through PD 10 columns (Pharmacia, Piscataway, N.J.) in water and then adjusted to a final concentration of 5 μM. NACP/α-synuclein protein (1 μl) is incubated in a total volume of 20 μl of buffer containing 20 mM Tris-HCl, pH 7.4. To perform the immuno-blotting analysis, each sample is resolved by SDS-PAGE (15%) and blotted onto nitrocellulose membrane (Schleicher & Schuell, Keene, N.H.). The blotted membrane is blocked with Tris-Buffered saline (TBS; 20 mM Tris-HCl, pH 7.5 and 150 mM NaCl) containing 3% BSA, followed by incubation with anti-C-terminal rabbit polyclonal antibody (1:1000) in TBS containing 1% BSA. The blocked membrane is then incubated with peroxidase-labeled anti-rabbit IgG (Amersham) (1:1000) and visualized using the ECL immuno-blotting system (Amersham, Cleveland, Ohio), the use of which is well known to those in the art.
It was hypothesized that aggregation of NACP/α-synuclein might be linked to the iron-catalyzed oxidative reactions, represented in FIG. 2a, illustrating the hypothesis for the association of NACP/α-synuclein aggregation with iron-catalyzed oxidative reaction (Harber-Weiss reaction). In order to determine if an iron-catalyzed oxidative reaction promotes aggregation of NACP/α-synuclein, the human recombinant form of this molecule was incubated with ferrous ion (100 μM) and hydrogen peroxide. […] Ferrous ion was not included in lanes 8–10. The position of molecular weight markers (kD) are indicated on left). […] Other transition metals were also examined for their effect on NACP/α-synuclein aggregation.

[5] = Specificity of ferric ion-induced aggregation: recombinant synuclein proteins treated with ferric ion, immunoblot; assay type: physicochemical, human; conditions: 100 μM ferric ion
Method: as §3, §4

[6] = Thioflavine-S staining of ferric ion-induced in vitro aggregates; assay type: physicochemical, human
Method: In order to determine if iron-induced NACP/α-synuclein aggregates display amyloid-like characteristics, Thioflavine-S staining is performed.
In order to determine whether the ferric-ion induced in vitro aggregates of NACP/α-synuclein display amyloid-like characteristics, Thioflavine-S staining experiments were performed.

[7] = Thioflavine-S staining of aggregates formed at pH 6.9, 65 C; assay type: physicochemical, human; conditions: pH 6.9, 65 C conditions
Method: In order to determine whether the aggregates resulting from aggregation reactions of PROEX-1-β-synuclein 61 and PROEX-1-β-synuclein δ2 display amyloid-like characteristics, 10 μl aliquots of the protein preparations are obtained using the above-described procedures are pipetted onto glass slides and stained with Thioflavine-S. The results are visually analyzed using a confocal microscope, the method of which is well known to those in the art.

[8] = Aggregation assay under high temperature conditions, SDS-PAGE analysis; assay type: physicochemical, human; conditions: 20 μM protein, 100 mM sodium acetate, pH 6.9, 65° C.
Method: as §1
Recombinant proteins were produced using a standard E. coli system and high purity products were generated using SDS-PAGE analysis, seen as FIG. 4.
After 8 hours incubation, the bands corresponding to possible dimers became visible and, after 20 hours incubation, bands corresponding to dimers and higher smears in both the separating and stacking portions of the gels was observed.

Compound: Nc1c(/N=N/c2ccc(-c3ccc(/N=N/c4cc(S(=O)(=O)O)c5ccccc5c4N)cc3)cc2)cc(S(=O)(=O)O)c2ccccc12 [Congo red]
- inhibition of aggregation of NACP/α-synuclein [1]: partly inhibited aggregation
- inhibition of aggregation of β-synuclein δ2 [2]: partly inhibited aggregation

- aggregation of NACP/α-synuclein 140 induced by the ion [3]: induced aggregation
Compound: [Fe+3] [ferric ion]

Compound: OO [hydrogen peroxide]
- aggregation of NACP/α-synuclein with hydrogen peroxide in the presence of ferrous ion ([4]; NACP/α-synuclein 1 μM, ferrous ion 100 μM, 1 nM-100 μM H2O2): dose-dependent aggregation
- aggregation of NACP/α-synuclein with hydrogen peroxide alone ([4]; no ferrous ion, 10-100 μM H2O2): no remarkable changes

- aggregation of NACP/α-synuclein by other transition metals in the presence of hydrogen peroxide ([4]; in the presence of hydrogen peroxide): failed to induce the aggregation
Compound: manganese

Compound: β-synuclein: human recombinant NACP/α-synuclein-related protein with a partially incomplete NAC domain; non-amyloidogenic
- aggregation of the protein on treatment with ferric ion [5]: not aggregated
- Thioflavine-S reactivity of ferric ion-induced aggregates [6]: not
- Thioflavine-S staining of the protein [7]: negative result
- aggregation of the protein under high temperature conditions (SDS-PAGE) [8]: showed no aggregation
